Experiments:
Type in all cases: cell-based, human
hPSC-CMs = assay: Immunofluorescence cell size (area of cTnT staining); conditions: day 30, pI:C-treated vs untreated progenitors
Protocol: For internal antigens, cells were rinsed of media two times in PBS, fixed for 10 minutes in 4% paraformaldehyde at RT, rinsed three times again in PBS, then blocked for 1 hour at room temperature (RT) in Licor blocking buffer containing 0.2% Triton x-100 (Sigma). Blocking solution was aspirated and antibodies added overnight at 4° C. in fresh blocking/permeabilization solution. Antibodies used were mouse cardiac troponin T (Thermo Fisher Scientific, 1:200), rabbit WT1 (Abcam 1:200), mouse smooth muscle myosin heavy chain (Abcam, 1:200), goat Jag1 c-terminal domain (1:200 Abcam), MMP1 (Abcam, 1:200), mouse cardiac actin (Sigma, 1:200), rabbit SLC25A4 (Proteintech, 1:100), rabbit DBT (Proteintech, 1:100), rabbit ATP5F1 (Proteintech, 1:100), rabbit Irx4 (Abcam, 1:200), goat nkx2.5 (Santa Cruz, 1:50), mouse connexin 40 (Thermo Fisher Scientific, 1:200), and fibroblast-specific protein (Abcam, 1:100). After primary and secondary antibodies, cells were rinsed two times in PBS with 0.2% triton x-100. Donkey secondaries conjugated to Alexa Fluor dyes were used at 1:1000 and incubated at RT for 1 h. DAPI or Hoechst was used to visualize nuclei. Cells were imaged either on an EVOS system in wells (Thermo Fisher Scientific) or a Leica confocal microscope in cover glass or ibidi 8-well microslides. Image J was used to quantify cell area by outer boundaries of cTnT staining.

[1] = tested on: day 5 cardiac progenitors; assay: RNA-seq differential gene expression, day 5 pI:C-primed vs untreated cardiac progenitors
Protocol: Day-5 cells from d3-5 untreated, TGFβ-treated, and pI:C-treated progenitors from the 19-9-11 iPS cell line were separately prepared as above for cell dissociation of progenitors from three different wells of each condition (for 9 total sequencing samples) and isolated as described above for RNA for RT-qPCR. rRNA-reduced Illumina TruSeq™ Stranded total RNA libraries were prepared and 1×100 bp single end sequencing was performed. To map and annotate RNA-seg data, STAR and HTSeq were used, respectively (Anders et al., 2015; Dobin and Gingeras, 2015). Annotated transcript counts were further processed with DeSEq2 for differential gene expression analysis (Love et al., 2014). Gene neighborhood analysis was performed with NEST (Jiang et al., 2015).

[2] = tested on: hPSC-derived cardiac progenitors and hPSC-CMs; assay: RT-qPCR gene expression in progenitors or cardiomyocytes
Protocol: Frozen cell pellets from progenitors or cardiomyocytes in the 19-9-11 iPS cell line were thawed and RNA isolated using RNeasy spin columns with on-column DNase treatment according to the manufacturer's instructions (Qiagen). 500 ng of isolated RNA was used as template for reverse transcription using Biorad iScript RT supermix according to the manufacturer's instructions. 2.5 ng of derived cDNA was then used as template in qPCR with Taqman® primers bearing FAM-MGB dyes for genes of interest in a 20 μL reaction with Taqman® universal PCR supermix and the manufacturer's recommended cycling conditions (Thermo Fisher Scientific).

[3] = day 5 progenitors, out of ~10,500 genes detected
[4] = primed vs untreated cardiac progenitors, qPCR

With polyinosinic-polycytidylic acid [pI:C] the hPSC-CM cell size (hPSC-CMs) was “twice as large”, the “number of genes significantly downregulated” value [1, 3] was 912 genes and the “number of genes significantly upregulated” value [1, 3] was 514 genes. It also gave a log2FoldChange ([1]; gene ACTN3) of 0.6193, a log2FoldChange ([1]; gene ADAMTS18) of −1.365 and a log2FoldChange ([1]; gene ADCY5) of 0.9552. For the same substance, the log2FoldChange ([1]; gene ADCY8) was 0.6342, the log2FoldChange ([1]; gene ALDH1A2) was 1.067 and the log2FoldChange ([1]; gene ANKRD18A) was 1.148. It also gave a log2FoldChange ([1]; gene AQP3) of 0.8778, a log2FoldChange ([1]; gene ARL15) of 0.6459 and a log2FoldChange ([1]; gene ARSI) of 0.6043. The log2FoldChange ([1]; gene ATP8B4) was −1.545, the log2FoldChange ([1]; gene BAI2) was 0.6046 and the log2FoldChange ([1]; gene C20orf103) was 0.9674. It also gave a log2FoldChange ([1]; gene CD82) of 1.288, a log2FoldChange ([1]; gene CDC25B) of 0.6173 and a log2FoldChange ([1]; gene CHRNA3) of 0.6865. The log2FoldChange ([1]; gene CHRNB4) was 0.6085, the log2FoldChange ([1]; gene CNTFR) was 0.8038 and the log2FoldChange ([1]; gene COL2A1) was 0.9666. The log2FoldChange ([1]; gene COL19A1) was −0.827, the log2FoldChange ([1]; gene CRNDE) was 0.7347 and the log2FoldChange ([1]; gene CTNNA2) was 0.8199. It also gave a log2FoldChange ([1]; gene DKFZp686D0853) of 0.782, a log2FoldChange ([1]; gene DKK1) of 0.8084 and a log2FoldChange ([1]; gene DLL3) of 0.7285. For the same substance, the log2FoldChange ([1]; gene DPYSL5) was 0.6254, the log2FoldChange ([1]; gene DUSP4) was −1.302 and the log2FoldChange ([1]; gene EPHB3) was 0.6122. The log2FoldChange ([1]; gene ERBB4) was −0.836, the log2FoldChange ([1]; gene EYA1) was 0.927 and the log2FoldChange ([1]; gene FAM98B) was 1.008. For the same substance, the log2FoldChange ([1]; gene FHDC1) was 0.6831, the log2FoldChange ([1]; gene FOXC1) was 0.9077 and the log2FoldChange ([1]; gene FOXC2) was 0.8203. The log2FoldChange ([1]; gene FOXL1) was 1.223, the log2FoldChange ([1]; gene GJA4) was −0.828 and the log2FoldChange ([1]; gene GPC3) was 0.6647. It also gave a log2FoldChange ([1]; gene GPR55) of −1.691, a log2FoldChange ([1]; gene HAND1) of −1.326 and a log2FoldChange ([1]; gene HAPLN3) of 0.8468. It also gave a log2FoldChange ([1]; gene HEY1) of 0.6706, a log2FoldChange ([1]; gene HLA-DQA2) of 0.881 and a log2FoldChange ([1]; gene IFI16) of 1.021. For the same substance, the log2FoldChange ([1]; gene IP6K3) was 0.6953, the log2FoldChange ([1]; gene IRX3) was 0.7452 and the log2FoldChange ([1]; gene IRX5) was 0.9174. The log2FoldChange ([1]; gene JAG1) was 1.453, the log2FoldChange ([1]; gene KCNH7) was 0.8627 and the log2FoldChange ([1]; gene KCNJ16) was −1.26. It also gave a log2FoldChange ([1]; gene KIAA0319) of 0.6142, a log2FoldChange ([1]; gene KIAA1324) of 0.914 and a log2FoldChange ([1]; gene LIX1) of 0.6361. The log2FoldChange ([1]; gene MMP16) was 0.9772, the log2FoldChange ([1]; gene MN1) was 0.8939 and the log2FoldChange ([1]; gene MT1X) was 0.7867. For the same substance, the log2FoldChange ([1]; gene MXRA5) was −1.313, the log2FoldChange ([1]; gene MYO7A) was 0.815 and the log2FoldChange ([1]; gene NEFL) was 0.6647. For the same substance, the log2FoldChange ([1]; gene NELL2) was 0.6696, the log2FoldChange ([1]; gene NETO1) was 0.918 and the log2FoldChange ([1]; gene NFKBIZ) was 0.7246. For the same substance, the log2FoldChange ([1]; gene NKX3-1) was 0.9735, the log2FoldChange ([1]; gene NPY) was 1.254 and the log2FoldChange ([1]; gene NR2F1) was 0.7356. For the same substance, the log2FoldChange ([1]; gene NRCAM) was −1.533, the log2FoldChange ([1]; gene NRXN1) was 0.724 and the log2FoldChange ([1]; gene PANX2) was 1.107. The log2FoldChange ([1]; gene PAPPA) was 0.9808, the log2FoldChange ([1]; gene PDE1B) was 0.9995 and the log2FoldChange ([1]; gene PDGFD) was 0.6619. The log2FoldChange ([1]; gene PPFIA2) was 0.8189, the log2FoldChange ([1]; gene PPFIBP2) was −0.835 and the log2FoldChange ([1]; gene PPM1J) was 0.6364. It also gave a log2FoldChange ([1]; gene PPP1R1A) of 1.171, a log2FoldChange ([1]; gene PRSS12) of 0.817 and a log2FoldChange ([1]; gene PRSS23) of 0.9765. For the same substance, the log2FoldChange ([1]; gene PTN) was 0.7536, the log2FoldChange ([1]; gene PTPN12) was 0.7631 and the log2FoldChange ([1]; gene RARB) was 0.9291. For the same substance, the log2FoldChange ([1]; gene RASSF10) was −1.321, the log2FoldChange ([1]; gene RERG) was 0.6913 and the log2FoldChange ([1]; gene RHBDL3) was 0.7861. The log2FoldChange ([1]; gene RND3) was 0.6053, the log2FoldChange ([1]; gene ROBO3) was 0.6174 and the log2FoldChange ([1]; gene SCGB1A1) was 0.7028. The log2FoldChange ([1]; gene SIX1) was 1.397, the log2FoldChange ([1]; gene SLC24A3) was 0.7397 and the log2FoldChange ([1]; gene SLC28A2) was −1.472. For the same substance, the log2FoldChange ([1]; gene SPOCK3) was 0.6961, the log2FoldChange ([1]; gene STAR) was 0.7806 and the log2FoldChange ([1]; gene SYT4) was 0.9363. It also gave a log2FoldChange ([1]; gene SYT6) of 0.6752, a log2FoldChange ([1]; gene TBX3) of −1.289 and a log2FoldChange ([1]; gene TMEM132E) of 0.6361. For the same substance, the log2FoldChange ([1]; gene TMOD1) was −1.407, the log2FoldChange ([1]; gene TMPRSS13) was 0.6086 and the log2FoldChange ([1]; gene TOX) was 0.6437. The log2FoldChange ([1]; gene TRPA1) was −1.599, the log2FoldChange ([1]; gene TXNIP) was 0.805 and the log2FoldChange ([1]; gene USP27X) was 0.6946. For the same substance, the log2FoldChange ([1]; gene VEPH1) was −1.26, the myofilament gene expression ([2]; day 9 cells, treated vs untreated progenitors) was “increased expression of all myofilament genes studied” and the “expression of cardiomyocyte maturation genes such as cTnI and αMHC” value ([2]; day 20 pPSC-CM, pI:C vs untreated) was “increased the expression levels”. For the same substance, the “expression of cardiac fibroblast genes (Thy1, MMP1, Collagen 1a, WT1)” value ([2]; pI:C treatment vs untreated) was “downregulated”, the “levels of type I HDAC1-3” value [2, 4] was “unchanged to unregulated levels” and the “levels of type II histone deacetylases (HDAC4-7)” value [2, 4] was “universally lower levels”.

— patent publication US11352604B2, “Method of making cardiomyocytes from human pluripotent cells” (Wisconsin Alumni Research Foundation, priority 2016, dated 2022)
